Values of other authors, collected in patent US20030180282A1, “Method of treatment of thrombotic events” (priority 2002, published 2003).
Residues, ends and D or L forms follow the SMILES beside them.

Experiments:
[1] = coadministration with thrombolytic therapy

SMILES | effect on reocclusion and recurrent ischemia [1] | incidence of death and reinfarction (IMPACT-AMI, all patients randomized, placebo 7.3%) [%] | major hemorrhage (in vivo) [%]
CC(=O)Oc1ccccc1C(=O)O [aspirin] | approximate halving of frequency | – | –
N=C(N)NCCCC[C@@H]1NC(=O)CCSSC[C@@H](C(N)=O)NC(=O)[C@@H]2CCCN2C(=O)[C@H](Cc2c[nH]c3ccccc23)NC(=O)[C@H](CC(=O)O)NC(=O)CNC1=O [eptifibatide] (HELM PEPTIDE1{[O=C(CCS[*:3])[*:2]].[N=C(N)NCCCC[C@H](N[*:1])C(=O)[*:2]].G.D.W.P.C.[am]}$PEPTIDE1,PEPTIDE1,1:R3-7:R3$$$V2.0) | – | 8.0 | 7.1
